# Patent US6987114B1, “Antiviral pyrimidinedione derivatives and process for the preparation thereof” (Samjin Pharmaceutical Co., Ltd, priority 1999, dated 2006)
# Read-outs that look alike come from different tables or passages of the source.
# Columns and labels:
# HIV = assay: microbe, parasite or virus in culture; format: cell-based
# Summary of the method: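 MT-4 cells (2.5×10^5 cells/ml) infected with 1000 CCID50 HIV, added at once to compound dilutions, incubated 4 or 5 days at 37° C. Protection from virus-induced cytopathic effect read by MTT; cytotoxicity from MTT viability of mock-infected cells in parallel.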
# mock-infected MT-4 cells = assay: Cytotoxicity based on viability of mock-infected host cells (MTT method); format: cell-based; conditions: mock-infected MT-4 cells, MTT method, 4 or 5 days at 37° C.
# Summary of the method: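 Mock-infected MT-4 cells at 2.5×10^5 cells/ml were exposed to various concentrations of test compound, run in parallel with HIV-infected (1000 CCID50) cultures. After 4 or 5 days at 37° C., host-cell viability was read by MTT.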
# [1] = Human immunodeficiency virus 1, MT4, HIV-infected MT-4 cells, MTT method, 4 or 5 days at 37° C., read-out: ED50 (the source's name)
# [2] = Human immunodeficiency virus 1, MT4, read-out: ED50
Compound,EC50 (HIV; [1]) [µg/mL],melting point [°C],CD50 (mock-infected MT-4 cells) [µg/mL],EC50 (HIV; [2]) [µg/mL]
"CCc1c(C(=O)c2cc(C)cc(C)c2)n(Cc2cc(F)cc(F)c2)c(=O)[nH]c1=O [Example 77, 1-(3,5-Difluorobenzyl)-5-ethyl-6-(3,5-dimethylbenzoyl)-2,4-pyrimidinedione]",0.003,165 to 167,7.0,
"Cc1cc(C)cc(C(=O)c2c(C(C)C)c(=O)[nH]c(=O)n2Cc2cc(F)cc(F)c2)c1 [Example 78, 1-(3,5-Difluorobenzyl)-5-isopropyl-6-(3,5-dimethylbenzoyl)-2,4-pyrimidinedione]",0.0033,207 to 209,7.1,
"CCc1c(Sc2cc(C)cc(C)c2)n(Cc2cc(Cl)cc(Cl)c2)c(=O)[nH]c1=O [Example 79, 1-(3,5-Dichlorobenzyl)-5-ethyl-6-(3,5-dimethylphenyl)thio-2,4-pyrimidinedione]",,180 to 182,24.77,0.052
"Cc1cc(C)cc(Sc2c(C(C)C)c(=O)[nH]c(=O)n2Cc2cc(Cl)cc(Cl)c2)c1 [Example 80, 1-(3,5-Dichlorobenzyl)-5-isopropyl-6-(3,5-dimethylphenyl)thio-2,4-pyrimidinedione]",,194 to 196,46.83,0.049
"CCc1c(Oc2cc(C)cc(C)c2)n(Cc2cc(Cl)cc(Cl)c2)c(=O)[nH]c1=O [Example 81, 1-(3,5-Dichlorobenzyl)-5-ethyl-6-(3,5-dimethylphenoxy)-2,4-pyrimidinedione]",,194 to 196,>100.00,1.16
"Cc1cc(C)cc(Oc2c(C(C)C)c(=O)[nH]c(=O)n2Cc2cc(Cl)cc(Cl)c2)c1 [Example 82, 1-(3,5-Dichlorobenzyl)-5-isopropyl-6-(3,5-dimethylphenoxy)-2,4-pyrimidinedione]",,234 to 236,36.15,0.173
"CCc1c(C(=O)c2cc(C)cc(C)c2)n(Cc2cc(Cl)cc(Cl)c2)c(=O)[nH]c1=O [Example 83, 1-(3,5-Dichlorobenzyl)-5-ethyl-6-(3,5-dimethylbenzoyl)-2,4-pyrimidinedione]",,223 to 225,3.10,0.021
"Cc1cc(C)cc(C(=O)c2c(C(C)C)c(=O)[nH]c(=O)n2Cc2cc(Cl)cc(Cl)c2)c1 [Example 84, 1-(3,5-Dichlorobenzyl)-5-isopropyl-6-(3,5-dimethylbenzoyl)-2,4-pyrimidinedione]",,220 to 222,7.88,0.024
"CCc1c(Sc2cc(C)cc(C)c2)n(Cc2cc(Br)cc(Br)c2)c(=O)[nH]c1=O [Example 85, 1-(3,5-Dibromobenzyl)-5-ethyl-6-(3,5-dimethylphenyl)thio-2,4-pyrimidinedione]",,214 to 215,13.17,0.13
"Cc1cc(C)cc(Sc2c(C(C)C)c(=O)[nH]c(=O)n2Cc2cc(Br)cc(Br)c2)c1 [Example 86, 1-(3,5-Dibromobenzyl)-5-isopropyl-6-(3,5-dimethylphenyl)thio-2,4-pyrimidinedione]",,225 to 226,2.11,0.094
"CCc1c(Oc2cc(C)cc(C)c2)n(Cc2cc(Br)cc(Br)c2)c(=O)[nH]c1=O [Example 87, 1-(3,5-Dibromobenzyl)-5-ethyl-6-(3,5-dimethylphenoxy)-2,4-pyrimidinedione]",,210 to 211,>100.00,2.05
"Cc1cc(C)cc(Oc2c(C(C)C)c(=O)[nH]c(=O)n2Cc2cc(Br)cc(Br)c2)c1 [Example 88, 1-(3,5-Dibromobenzyl)-5-isopropyl-6-(3,5-dimethylphenoxy)-2,4-pyrimidinedione]",,244 to 246,>100.00,0.42
"CCc1c(C(=O)c2cc(C)cc(C)c2)n(Cc2cc(Br)cc(Br)c2)c(=O)[nH]c1=O [Example 89, 1-(3,5-Dibromobenzyl)-5-ethyl-6-(3,5-dimethylbenzoyl)-2,4-pyrimidinedione]",,234 to 236,8.75,0.09
"Cc1cc(C)cc(C(=O)c2c(C(C)C)c(=O)[nH]c(=O)n2Cc2cc(Br)cc(Br)c2)c1 [Example 90, 1-(3,5-Dibromobenzyl)-5-isopropyl-6-(3,5-dimethylbenzoyl)-2,4-pyrimidinedione]",,223 to 225,8.90,0.12
"CCc1c(Sc2cc(C)cc(C)c2)n(Cc2c3ccccc3cc3ccccc23)c(=O)[nH]c1=O [Example 97, 1-(Anthracen-9-ylmethyl)-5-ethyl-6-(3,5-dimethylphenyl)thio-2,4-pyrimidinedione]",,219 to 220,0.59,> 0.59
"Cc1cc(C)cc(Sc2c(C(C)C)c(=O)[nH]c(=O)n2Cc2c3ccccc3cc3ccccc23)c1 [Example 98, 1-(Anthracen-9-ylmethyl)-5-isopropyl-6-(3,5-dimethylphenyl)thio-2,4-pyrimidinedione]",,129 to 131,1.75,> 1.75
"CCc1c(Oc2cc(C)cc(C)c2)n(Cc2c3ccccc3cc3ccccc23)c(=O)[nH]c1=O [Example 99, 1-(Anthracen-9-ylmethyl)-5-ethyl-6-(3,5-dimethyl-phenoxy)-2,4-pyrimidinedione]",,243 to 245,4.12,> 4.12
"Cc1cc(C)cc(Oc2c(C(C)C)c(=O)[nH]c(=O)n2Cc2c3ccccc3cc3ccccc23)c1 [Example 100, 1-(Anthracen-9-ylmethyl)-5-isopropyl-6-(3,5-dimethyl-phenoxy)-2,4-pyrimidinedione]",,224 to 226,2.02,> 2.02
"CCc1c(C(=O)c2cc(C)cc(C)c2)n(Cc2c3ccccc3cc3ccccc23)c(=O)[nH]c1=O [Example 101, 1-(Anthracen-9-ylmethyl)-5-ethyl-6-(3,5-dimethyl-benzoyl)-2,4-pyrimidinedione]",,270 to 272,0.94,> 0.94
"Cc1cc(C)cc(C(=O)c2c(C(C)C)c(=O)[nH]c(=O)n2Cc2c3ccccc3cc3ccccc23)c1 [Example 102, 1-(Anthracen-9-ylmethyl)-5-isopropyl-6-(3,5-dimethyl-benzoyl)-2,4-pyrimidinedione]",,273 to 275,4.44,> 4.44
"CCc1c(Sc2cc(C)cc(C)c2)n(Cc2ccc3c(c2)C(=O)c2ccccc2C3=O)c(=O)[nH]c1=O [Example 103, 1-(Anthraquinon-2-ylmethyl)-5-ethyl-6-(3,5-dimethyl-phenyl)thio-2,4-pyrimidinedione]",> 85.2,195 to 197,85.19,
"Cc1cc(C)cc(Sc2c(C(C)C)c(=O)[nH]c(=O)n2Cc2ccc3c(c2)C(=O)c2ccccc2C3=O)c1 [Example 104, 1-(Anthraquinon-2-ylmethyl)-5-isopropyl-6-(3,5-dimethyl-phenyl)thio-2,4-pyrimidinedione]",> 100,120 to 122,>100.00,
"CCc1c(Oc2cc(C)cc(C)c2)n(Cc2ccc3c(c2)C(=O)c2ccccc2C3=O)c(=O)[nH]c1=O [Example 105, 1-(Anthraquinon-2-ylmethyl)-5-ethyl-6-(3,5-dimethylphenoxy)-2,4-pyrimidinedione]",0.52,233 to 235,5.30,
"Cc1cc(C)cc(Oc2c(C(C)C)c(=O)[nH]c(=O)n2Cc2ccc3c(c2)C(=O)c2ccccc2C3=O)c1 [Example 106, 1-(Anthraquinon-2-ylmethyl)-5-isopropyl-6-(3,5-dimethylphenoxy)-2,4-pyrimidinedione]",0.49,246 to 248,9.49,
"CCc1c(C(=O)c2cc(C)cc(C)c2)n(Cc2ccc3c(c2)C(=O)c2ccccc2C3=O)c(=O)[nH]c1=O [Example 107, 1-(Anthraquinon-2-ylmethyl)-5-ethyl-6-(3,5-dimethylbenzoyl)-2,4-pyrimidinedione]",0.026,143 to 146,2.38,
"Cc1cc(C)cc(C(=O)c2c(C(C)C)c(=O)[nH]c(=O)n2Cc2ccc3c(c2)C(=O)c2ccccc2C3=O)c1 [Example 108, 1-(Anthraquinon-2-ylmethyl)-5-isopropyl-6-(3,5-dimethylbenzoyl)-2,4-pyrimidinedione]",0.017,156 to 158,14.41,
"CCc1c(Sc2cc(C)cc(C)c2)n(Cc2ccccn2)c(=O)[nH]c1=O [Example 109, 1-(Pyridin-2-ylmethyl)-5-ethyl-6-(3,5-dimethylphenyl)thio-2,4-pyrimidinedione]",0.015,217 to 219,29.72,
"Cc1cc(C)cc(Sc2c(C(C)C)c(=O)[nH]c(=O)n2Cc2ccccn2)c1 [Example 110, 1-(Pyridin-2-ylmethyl)-5-isopropyl-6-(3,5-dimethylphenyl)thio-2,4-pyrimidinedione]",0.009,194 to 196,9.61,
"CCc1c(Oc2cc(C)cc(C)c2)n(Cc2ccccn2)c(=O)[nH]c1=O [Example 111, 1-(Pyridin-2-ylmethyl)-5-ethyl-6-(3,5-dimethylphenoxy)-2,4-pyrimidinedione]",0.081,215 to 217,>100.00,
